The record followed here is article PMC9658668, “Phytochemical Variability, In Vitro and In Vivo Biological Investigations, and In Silico Antibacterial Mechanisms of Mentha piperita Essential Oils Collected from Two Different Regions in Morocco” (Foods, 2022).

A short description of experiment [1]: DPPH radical-scavenging activity. The protocol: The essential oil of Mentha piperita was performed using a 1,1-diphenyl-2-picryl hydrazyl (DPPH) technique, as reported in Brand-Williams et al. with some changes. Briefly, a 2.5 mL aliquot of DPPH solution was mixed with 1.25 mL of the essential oil at a concentration of 1 mg/mL, and then the obtained solution was incubated at 25 °C for 30 min. The absorbance was measured at 517 nm.

Experiment [2] is described as follows: Trolox equivalent antioxidant capacity (ABTS) assay. How it is done: The assay was carried out using the ABTS^+ method as described by Re et al. with some modifications. Briefly, the ABTS radical cation was generated by mixing 10 mL of 2 mM ABTS with 100 µL of potassium persulfate (2.45 mM). After the reaction mixture is kept in the dark at room temperature for 16 h, methanol is used to dilute the ABTS solution to obtain an absorbance of 0.700 at 734 nm. Two hundred µL of the essential (1 mg/mL) was mixed with 2 mL of diluted ABTS solution. The mixture was allowed to react for 1 min, and the absorbance was measured at 734 nm. Trolox is used as a reference standard. The results were expressed as an IC50 value (µg/mL).

The nature of experiment [3]: H2O2-scavenging activity. The protocol: The H2O2 radical scavenging activity of extracts was determined according to the method described by Ruch et al.. Briefly, 40 mM of H2O2 solution was prepared in phosphate buffer (pH 7.4). A total of 1 mL of M. piperita HE at a concentration of 1 mg/mL was added to 0.6 mL of H2O2 solution. The mixture was incubated at 25 °C for 10 min, and the absorbance of H2O2 was determined at 230 nm against a blank solution containing phosphate buffer without H2O2. The positive control used is Ascorbic acid. The H2O2 trapping capacity was expressed as an IC50 value (µg/mL).

In experiment [4] the test system is carrageenan-induced rat paw edema. Briefly: Carrageenan-induced paw edema. The experiment is classed as in vivo, Wistar rats. The note with it: EO 100 mg/kg oral, indomethacin 10 mg/kg. The protocol: The studies were carried out on adult rats of the Wistar strain, obtained from the central animal facility of the Faculty of Medicine and Pharmacy of Rabat. These rats weighed between 200 and 250 g. The temperature was maintained at 20 °C with a lighting cycle of 12 h of light and 12 h of darkness. The study was approved by the Ethics Committee from Mohammed V University, (Protocol code # UA-2021-09; date of approval 27 May 2021).
The anti-inflammatory effects were studied using the carrageenan-induced paw edema method previously described by Musa G. Rege et al.. Briefly, Wistar rats (160 to 200 g) were randomly divided into […] (n = 6). The first two groups were orally administered with 100 mg/kg of M. pepirita EO. The third group was a negative control which received distilled water, while the last group was considered a positive control and received indomethacin (10 mg/kg) as the reference anti-inflammatory drug. After 60 min, all rats were injected subcutaneously with carrageenan solution (0.05 mL of 1% carrageenan suspended in 0.9% NaCl) into the subplantar region of the left hind paw. […] The anti-inflammatory effect is calculated using the following equation. In each group, the anti-inflammatory effect is measured by the percentage of edema inhibition (% INH) in paw volume, as follows: %INH = (mean [VL − VR] Control − mean [VL − VR] Treated)/[VL − VR] Control × 100 • With: VL: volume of the left paw. • VR: volume of the right paw.

The test system of experiment [5] is L. monocytogenes ATCC 13932. Briefly: MIC and MBC determination. The experiment is classed as cell-based, Listeria monocytogenes. Also noted: MIC / MBC: unit not given beside the values. The protocol: (§1) The antibacterial activity of M. piperita essential oils (MPEO) from Ouezzane and Azrou regions (Morocco) was evaluated against the following six bacterial strains: three gram-positive bacteria (Staphylococcus aureus ATCC 29213, Listeria monocytogenes ATCC 13932, Bacillus subtilis ATCC 6633), and three gram-negative bacteria (Escherichia coli ATCC 25922, Salmonella typhimurium ATCC 700408, and Pseudomonas aeruginosa ATCC 27853).
(§2) An inoculum of the frozen stock (−20 °C) was utilized to inoculate Mueller–Hinton Agar (Biokar, Beauvais, France), where it was incubated for 24 h at 37 °C to revive the bacteria. Then, an inoculum was removed from a bacterial colony and diluted to 0.5 McFarland in sterile salt water (0.9% NaCl) before being transferred to a sterile tube where the weighty particles were left to settle for 5 min. The top homogeneous solutions were transferred to a new, sterile tube and their concentration was adjusted to the 0.5 McFarland turbidity standard to obtain an inoculum of about […], which was used in the antibacterial testing
(§3) The minimum inhibitory concentration (MIC) is the lowest essential oil concentration that could prevent the growth of bacteria. The determination of MIC values against bacteria was conducted according to the previously reported procedure with a minor change, using Mueller–Hinton broth (Biokar, Beauvais, France) and bacteria. Twenty-four h of incubation was done at 37 °C. The antibiotic chloramphenicol served as a positive control. In sterile microtubes, two-fold serial dilutions of EO concentrations ranging from 4% to 0.0625 % (v/v) were made in Mueller–Hinton broth containing 5% of DMSO. […] Then, 5 µL of the previously produced bacterial suspension was added to each tube. Each suspension was homogenized and incubated for 24 h at 37 °C. As a first negative control, microtubes containing liquid medium and EO were used. […]
(§4) The MBC was determined to be the minimum concentration at which no growth occurred in the medium. […]

Experiment [6] deals with S. typhimurium ATCC 700408. Briefly: MIC and MBC determination. Format: cell-based, Salmonella typhimurium. The protocol:
as §1, §2, §3, §4

Experiment [7] relates to B. subtilis ATCC 6633. Briefly: MIC and MBC determination. The experiment is classed as cell-based, Bacillus subtilis. Also on record: MIC / MBC: unit not given beside the values. The protocol:
as §1, §2, §3, §4

The test system of experiment [8] is P. aeruginosa ATCC 27853. Briefly: MIC and MBC determination. The experiment is classed as cell-based, Pseudomonas aeruginosa. Also on record: unit not given beside the values. The note with it: chloramphenicol, unit not given. The protocol:
as §1, §2
(§5) The minimum inhibitory concentration (MIC) is the lowest essential oil concentration that could prevent the growth of bacteria. […]
as §4

For experiment [9], the system named is E. coli ATCC 25922. In words: MIC and MBC determination. Also on record: MBC: unit not given beside the values. The experiment is classed as cell-based, Escherichia coli. The protocol: as §1, §2, §5, §4
The test system of experiment [10] is S. aureus ATCC 29213. Briefly: MIC and MBC determination. Format: cell-based, Staphylococcus aureus. Also noted: MBC: unit not given beside the values. The protocol: as §1, §2, §5, §4
Setting [11] is: chloramphenicol, unit not given.

Marks after values point to notes of the source that are not given here.

Regarding `O=C1O[C@H]([C@@H](O)CO)C(O)=C1O` [Ascorbic acid], the “DPPH IC50” value in [1] is given as 09.03 ± 0.02 ^a µg/mL. The “ABTS Test IC50” value in experiment [2] is given as 74.81 ± 0.01 ^a µg/mL. In addition, in [3], the “H2O2 IC50” value is 3.23 ± 0.08 ^a µg/mL.

Take `COc1ccc2c(c1)c(CC(=O)O)c(C)n2C(=O)c1ccc(Cl)cc1` [Indomethacin]: the entries for the “Mean Edema Volume (Left-Right Paw)” value in experiment [4] (1 h 30 min), in [4] (3 h) and in experiment [4] (6 h) were 0.146 ± 0.04 mL, 0.178 ± 0.01 mL and 0.191 ± 0.01 mL, respectively. Also, the “Percentage Inhibition of Edema” value was determined as 69.77% in experiment [4] (1 h 30 min), 70.23% in experiment [4] (3 h) and 59.61% in [4] (6 h).

On to `O=C(N[C@H](CO)[C@H](O)c1ccc([N+](=O)[O-])cc1)C(Cl)Cl` [Chloramphenicol], for which the MBC/MIC in [5], in experiment [6], in [7], in experiment [9] and in experiment [10] was 1.0 in each case. Moreover, the MBC is reported as 2.0 in [5] (setting [11]); 64.0 in experiment [6] (setting [11]); 32.0 in [7] (setting [11]); above 64.0 in experiment [8]; 8.0 in experiment [9] (setting [11]); 4.0 in experiment [10] (setting [11]). Also, the MIC is 2.0 in experiment [5] (setting [11]), 64.0 in experiment [6] (setting [11]), 32.0 in experiment [7] (setting [11]) and above 64.0 in experiment [8].
